How the values were obtained:
KCHSC [1] = test: Herbicidal post-emergence action - Part I; assay type: in vivo, Kochia scoparia; conditions: 1280 g/ha, one-leaf stage, rated visually after about 3 weeks vs untreated controls
Protocol: (§1) Seeds of mono- and dicotyledonous weed plants were placed in plastic pots in sandy loam soil (doubly sown with in each case one species of mono- or dicotyledonous weed plants per pot), covered with soil and cultivated in a greenhouse under controlled growth conditions. 2 to 3 weeks after sowing, the test plants were treated at the one-leaf stage. The compounds of the invention, formulated in the form of wettable powders (WP) or as emulsion concentrates (EC), were applied onto the green parts of the plants as aqueous suspension or emulsion with addition of 0.5% additive at a water application rate of 600 liters per hectare (converted). After the test plants had been kept in the greenhouse under optimum growth conditions for about 3 weeks, the activity of the preparations was rated visually in comparison to untreated controls. For example, 100% activity = the plants have died, 0% activity = like control plants. Tables B1 to B12, below, show the effects of selected compounds of the general formula (I) according to table 1 on various harmful plants and an application rate corresponding to 1280 g/ha or below obtained by the experimental procedure mentioned above. Table B1a: post-emergence activity at 1280g/ha against ABUTH in %

POAAN [2] = test: Herbicidal pre-emergence action - Part I; assay type: in vivo, Poa annua; conditions: visual grading after ca. 3 weeks vs untreated controls
Excerpt: (§2) Seeds of mono- and dicotyledonous weed plants were sown in plastic pots (double sowings with one species of mono- and one species of dicotyledonous weed plants per pot), in sandy loam, and covered with soil. The compounds according to the invention, formulated in the form of wettable powders (WP) or as emulsifiable concentrates (EC), were applied to the surface of the covering soil as aqueous suspension or emulsion, with the addition of 0.5% of an additive, at an application rate of 600 1 of water per hectare (converted). Following treatment, the pots were placed in a greenhouse and kept under optimum growth conditions for the test plants. The visual grading of the damage to the test plants was carried out after ca. 3 weeks in comparison to untreated controls (herbicidaleffectinpercent(%):100%effect=plantshavediedoff,0%effect=ascontrolplants). [formula]
(§3) Tables A1 to A12, below, show the effects of selected compounds of the general formula (I) according to table 1 on various harmful plants and an application rate corresponding to 1280 g/ha or below obtained by the experimental procedure mentioned above. Table A1: pre-emergence activity at 1280g/ha against ABUTH in %

SETVI [3] = test: Herbicidal pre-emergence action - Part I; assay type: in vivo, Setaria viridis; conditions: visual grading after ca. 3 weeks vs untreated controls
Excerpt: as §2, §3

LOLRI = test: Herbicidal pre-emergence action - Part I; assay type: in vivo, Lolium rigidum; conditions: 1280 g/ha, visual grading after ca. 3 weeks vs untreated controls
Excerpt: as §2, §3

STEME = test: Herbicidal pre-emergence action - Part I; assay type: in vivo, Stellaria media; conditions: visual grading after ca. 3 weeks vs untreated controls
Excerpt: as §2, §3

ECHCG [4] = test: Herbicidal pre-emergence action - Part I; assay type: in vivo, Echinochloa crus-galli; conditions: visual grading after ca. 3 weeks vs untreated controls
Excerpt: as §2, §3

MATIN [5] = test: Herbicidal pre-emergence action - Part I; assay type: in vivo, Matricaria inodora; conditions: 1280 g/ha, visual grading after ca. 3 weeks vs untreated controls
Excerpt: as §2, §3

AMARE [6] = test: Herbicidal pre-emergence action - Part I; assay type: in vivo, Amaranthus retroflexus; conditions: 1280 g/ha, visual grading after ca. 3 weeks vs untreated controls
Excerpt: as §2, §3

MATIN [7] = test: Herbicidal post-emergence action - Part II; assay type: in vivo, Matricaria inodora; conditions: 20 g/ha; Table E4b
Excerpt: (§4) Seeds of mono- and dicotyledonous weed plants and crop plants were sown, in plastic or organic planting pots, in sandy loam, covered with soil and grown in a greenhouse under controlled growth conditions. 2 to 3 weeks after sowing, the test plants were sprayed in the single-leaf stage. The compounds according to the invention, formulated in form of wettable powders (WP) or as emulsifiable concentrates (EC), were sprayed onto the green plant parts as aqueous suspension or emulsion, with the addition of 0.5% of an additive, at an application rate of 600 1 of water/ha (converted). The test plants were placed in the greenhouse for ca. 3 weeks under optimum growth conditions, and then the effect of the preparations was assessed visually in comparison with untreated controls (herbicidal effect in percent (%): 100% effect = plants have died off, 0% effect = as control plants). Tables E1 to E10 below show the effects of selected compounds of the general formula (I) according to table 1 on various harmful plants and an application rate corresponding to 320 g/ha or below obtained by the experimental procedure mentioned above. Table E1a: post-emergence activity at 5g/ha against ABUTH in %

ZEAMX = test: Post-emergence effects on crop plants; assay type: in vivo, Zea mays; conditions: 5 g/ha; Table F1a; crop plant
Excerpt: as §4, with “F1” for “E1”, “F5” for “E10”, “crop” for “harmful”, “[…]:” for “E1a:”, “ZEAMX” for “ABUTH”

VERPE [8] = test: Herbicidal post-emergence action - Part II; assay type: in vivo, Veronica persica; conditions: 20 g/ha; Table E8b
Excerpt: as §4

AMARE [9] = test: Herbicidal post-emergence action - Part II; assay type: in vivo, Amaranthus retroflexus
Excerpt: as §4

TRZAS = test: Post-emergence effects on crop plants; assay type: in vivo, Triticum aestivum; conditions: 5 g/ha; Table F2a; crop plant
Excerpt: as §4, with “F1” for “E1”, “F5” for “E10”, “crop” for “harmful”, “[…]:” for “E1a:”, “ZEAMX” for “ABUTH”

ABUTH = test: Herbicidal post-emergence action - Part II; assay type: in vivo, Abutilon theophrasti
Excerpt: as §4

SETVI [10] = test: Herbicidal post-emergence action - Part II; assay type: in vivo, Setaria viridis; conditions: 20 g/ha; Table E7b
Excerpt: as §4

PHBPU = test: Herbicidal post-emergence action - Part II; assay type: in vivo, Pharbitis purpurea
Excerpt: as §4

VIOTR = test: Herbicidal post-emergence action - Part II; assay type: in vivo, Viola tricolor; conditions: 20 g/ha; Table E9b
Excerpt: as §4

POAAN [11] = test: Herbicidal post-emergence action - Part I; assay type: in vivo, Poa annua; conditions: 1280 g/ha, one-leaf stage, rated visually after about 3 weeks vs untreated controls
Protocol: as §1

ECHCG [12] = test: Herbicidal post-emergence action - Part I; assay type: in vivo, Echinochloa crus-galli; conditions: one-leaf stage, rated visually after about 3 weeks vs untreated controls
Protocol: as §1

SETVI [13] = test: Herbicidal post-emergence action - Part I; assay type: in vivo, Setaria viridis; conditions: 1280 g/ha, one-leaf stage, rated visually after about 3 weeks vs untreated controls
Protocol: as §1

KCHSC [14] = test: Herbicidal pre-emergence action - Part I; assay type: in vivo, Kochia scoparia; conditions: Table A10a, 1280 g/ha, visual grading after ca. 3 weeks vs untreated controls
Excerpt: as §2, §3

AMARE [15] = test: Herbicidal post-emergence action - Part I; assay type: in vivo, Amaranthus retroflexus; conditions: 1280 g/ha, one-leaf stage, rated visually after about 3 weeks vs untreated controls
Protocol: as §1

DIGSA = test: Herbicidal pre-emergence action - Part I; assay type: in vivo, Digitaria sanguinalis; conditions: visual grading after ca. 3 weeks vs untreated controls
Excerpt: as §2, §3

VERPE [16] = test: Herbicidal post-emergence action - Part I; assay type: in vivo, Veronica persica; conditions: 1280 g/ha, one-leaf stage, rated visually after about 3 weeks vs untreated controls
Protocol: as §1

## Cc1ccsc1C1=NOC2(CCN(Cc3ccccc3F)C2=O)C1 (racemic) [Compound I-17, 7-(2-Fluorobenzyl)-3-(3-methyl-2-thienyl)-1-oxa-2,7-diazaspiro[4.4]non-2-en-6-one]
KCHSC [1]
  post-emergence activity at 1280g/ha against KCHSC in %: 90%
POAAN [2]
  pre-emergence activity at 1280g/ha and against POAAN in %: 100%
SETVI [3]
  pre-emergence activity at 1280g/ha and against SETVI in %: 100%
LOLRI
  pre-emergence activity at 1280g/ha against LOLRI in %: 100%
STEME; 80 g/ha
  pre-emergence activity at 80g/ha against STEME in %: 90%
STEME
  pre-emergence activity at 320g/ha against STEME in %: 90%
  pre-emergence activity at 1280g/ha against STEME in %: 100%
ECHCG [4]
  pre-emergence activity at 1280g/ha against ECHCG in %: 90%
MATIN [5]
  pre-emergence activity at 1280g/ha against MATIN in %: 90%
AMARE [6]
  pre-emergence activity at 1280g/ha against AMARE in %: 90%

## Cn1c(C(F)(F)F)cc(=O)n(-c2cc(C3=NOC4(CCCNC4=O)C3)c(Cl)cc2F)c1=O (racemic) [Compound I-67]
MATIN [7]
  post-emergence activity against MATIN: 100%
ZEAMX
  post-emergence activity against ZEAMX: 20%
VERPE [8]
  post-emergence activity against VERPE: 80%
AMARE [9]; 5 g/ha, Table E2a
  post-emergence activity against AMARE: 100%
AMARE [9]; 20 g/ha, Table E2b
  post-emergence activity against AMARE: 100%
TRZAS
  post-emergence activity against TRZAS: 20%
ABUTH; 5 g/ha, Table E1a
  post-emergence activity against ABUTH: 80%
ABUTH; 20 g/ha, Table E1b
  post-emergence activity against ABUTH: 100%
SETVI [10]
  post-emergence activity against SETVI: 80%
PHBPU; 5 g/ha, Table E5a
  post-emergence activity against PHBPU: 100%
PHBPU; 20 g/ha, Table E5b
  post-emergence activity against PHBPU: 100%
VIOTR
  post-emergence activity against VIOTR: 100%

## Cc1ccsc1C1=NOC2(CCCN(Cc3cccc(F)c3F)C2=O)C1 (racemic) [Compound I-3, 7-(2,3-Difluorobenzyl)-3-(3-methyl-2-thienyl)-1-oxa-2,7-diazaspiro[4.5]-dec-2-en-6-one]
KCHSC [1]
  post-emergence activity at 1280g/ha against KCHSC in %: 90%
POAAN [11]
  post-emergence activity at 1280g/ha against POAAN in %: 90%
ECHCG [12]; 320 g/ha
  post-emergence activity at 320g/ha against ECHCG in %: 90%
ECHCG [12]; 1280 g/ha
  post-emergence activity at 1280g/ha against ECHCG in %: 90%
SETVI [13]
  post-emergence activity at 1280g/ha against SETVI in %: 90%
KCHSC [14]
  pre-emergence activity at 1280g/ha against KCHSC in %: 90%
POAAN [2]; 320 g/ha
  pre-emergence activity at 320g/ha and against POAAN in %: 100%
POAAN [2]
  pre-emergence activity at 1280g/ha and against POAAN in %: 100%
SETVI [3]; 320 g/ha
  pre-emergence activity at 320g/ha and against SETVI in %: 100%
SETVI [3]
  pre-emergence activity at 1280g/ha and against SETVI in %: 100%
AMARE [15]
  post-emergence activity at 1280g/ha against AMARE in %: 90%
LOLRI
  pre-emergence activity at 1280g/ha against LOLRI in %: 100%
DIGSA; 320 g/ha
  pre-emergence activity at 320g/ha against DIGSA in %: 90%
DIGSA; 1280 g/ha
  pre-emergence activity at 1280g/ha against DIGSA in %: 100%
STEME
  pre-emergence activity at 320g/ha against STEME in %: 90%
  pre-emergence activity at 1280g/ha against STEME in %: 90%
VERPE [16]
  post-emergence activity at 1280g/ha against VERPE in %: 90%
ECHCG [4]; 320 g/ha
  pre-emergence activity at 320g/ha against ECHCG in %: 100%
ECHCG [4]
  pre-emergence activity at 1280g/ha against ECHCG in %: 100%
MATIN [5]
  pre-emergence activity at 1280g/ha against MATIN in %: 90%
AMARE [6]
  pre-emergence activity at 1280g/ha against AMARE in %: 90%

— patent EP4509511A1, “SUBSTITUTED SPIRO-ISOXAZOLINYL LACTAMS, SALTS THEREOF AND THEIR USE AS HERBICIDALLY ACTIVE SUBSTANCES” (Bayer Aktiengesellschaft, priority 2023, dated 2025)
